Measurements published in patent US20240158446A1, “CYCLIC COMPOUND HAVING SELECTIVE INHIBITORY ACTION ON KRAS OVER HRAS AND NRAS” (CHUGAI SEIYAKU KABUSHIKI KAISHA, priority 2021, published 2024).
Where a SMILES comes first, the peptide text is derived from it. Bridges are numbered along the chain shown (N, C = ends). [ ]: non-standard residue; d: D form. The star is where a group is joined. hPhe(3-Cl-4-CF3) = N[C@@H](CCc1ccc(C(F)(F)F)c(Cl)c1)C(=O)O; NPrPhe(4-CF3) = CCCN[C@@H](Cc1ccc(C(F)(F)F)cc1)C(=O)O; NMeAbu(4,4,4-F3) = CN[C@@H](CC(F)(F)F)C(=O)O; NMeGly(cPent) = CN[C@H](C(=O)O)C1CCCC1; Pro(4,4-F2) = O=C(O)[C@@H]1CC(F)(F)CN1; NMeGly(cBu) = CN[C@H](C(=O)O)C1CCC1; NMeD = CN[C@@H](CC(=O)O)C(=O)O; NMeL = CN[C@@H](CC(C)C)C(=O)O; NMeNva = CCC[C@H](NC)C(=O)O; NMeAbu = CC[C@H](NC)C(=O)O; Morpholide = C1CN(*)CCO1; NMeA = CN[C@@H](C)C(=O)O; Ac5c = NC1(C(=O)O)CCCC1; Aze = O=C(O)[C@@H]1CCN1; Ac4c = NC1(C(=O)O)CCC1; Sar = CNCC(=O)O

Tests used:
[1] = biological target: GDP-bound KRAS wild-type protein (Homo sapiens, UniProt P01116); assay: Binding to KRAS by surface plasmon resonance (SPR), Single Cycle Kinetics; details: SPR Single Cycle Kinetics, GDP-bound KRAS wild-type protein, 1:1 binding model; read-out: KRAS KD
[2] = biological target: GDP-bound NRAS wild-type protein (Homo sapiens, UniProt P01111); assay: Binding to NRAS by surface plasmon resonance (SPR), Single Cycle Kinetics; details: SPR, GDP-bound NRAS wild-type protein vs GDP-bound KRAS wild-type protein
[3] = biological target: GDP-bound HRAS wild-type protein (Homo sapiens, UniProt P01112); assay: Binding to HRAS by surface plasmon resonance (SPR), Single Cycle Kinetics; details: SPR, GDP-bound HRAS wild-type protein vs GDP-bound KRAS wild-type protein
GDP-bound HRAS wild-type protein, sequence (P01112 whole entry): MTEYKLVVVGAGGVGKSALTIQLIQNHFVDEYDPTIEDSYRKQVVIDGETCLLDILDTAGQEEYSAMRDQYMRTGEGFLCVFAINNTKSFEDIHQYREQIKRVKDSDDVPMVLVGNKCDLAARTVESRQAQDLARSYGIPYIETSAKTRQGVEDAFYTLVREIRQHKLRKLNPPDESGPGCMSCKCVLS

GDP-bound KRAS wild-type protein, sequence (P01116 whole entry): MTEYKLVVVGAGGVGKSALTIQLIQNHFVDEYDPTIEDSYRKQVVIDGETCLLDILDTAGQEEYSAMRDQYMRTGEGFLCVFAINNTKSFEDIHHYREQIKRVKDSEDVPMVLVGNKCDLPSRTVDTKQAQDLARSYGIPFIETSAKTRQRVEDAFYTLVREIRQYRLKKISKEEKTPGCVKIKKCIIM
GDP-bound NRAS wild-type protein, sequence (P01111 whole entry): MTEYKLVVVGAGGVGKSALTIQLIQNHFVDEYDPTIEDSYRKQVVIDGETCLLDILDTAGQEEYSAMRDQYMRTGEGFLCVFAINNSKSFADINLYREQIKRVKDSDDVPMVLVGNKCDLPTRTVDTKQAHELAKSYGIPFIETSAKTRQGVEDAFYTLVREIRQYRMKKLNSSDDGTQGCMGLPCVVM

SMILES	Kd [1] [pM]	NRAS/KRAS (ratio of KD value for NRAS to KD value for KRAS) [2]	HRAS/KRAS (ratio of KD value for HRAS to KD value for KRAS) [3]
CCC[C@H]1C(=O)N[C@@H]([C@@H](C)CC)C(=O)N(C)CC(=O)N(C)CC(=O)N(CCC)[C@@H](Cc2ccc(C(F)(F)F)cc2)C(=O)N(C)CC(=O)N[C@@H](CCc2ccc(C(F)(F)F)c(Cl)c2)C(=O)N2CCC[C@H]2C(=O)NC2(CCCC2)C(=O)N(C)[C@@H](C2CCCC2)C(=O)N(C)[C@H](C(=O)N2CCOCC2)CC(=O)N1C [PP0189] ([NMeNva]I[Sar][Sar][NPrPhe(4-CF3)][Sar][hPhe(3-Cl-4-CF3)]P[Ac5c][NMeGly(cPent)][NMeD]-Morpholide; lactam N-11)	220	B (a compound having 3 or more and less than 10 is denoted as B)	C (A compound having a KD ratio of 0.1 or more and less than 3 is denoted as C)
CCCN1C(=O)CN(C)C(=O)CN(C)C(=O)[C@H]([C@@H](C)CC)NC(=O)[C@H](CC)N(C)C(=O)C[C@@H](C(=O)N2CCOCC2)N(C)C(=O)[C@H](C2CCCC2)N(C)C(=O)C2(CCCC2)NC(=O)[C@@H]2CCCN2C(=O)[C@H](CCc2ccc(C(F)(F)F)c(Cl)c2)NC(=O)CN(C)C(=O)[C@@H]1Cc1ccc(C(F)(F)F)cc1 [PP0190] ([NMeAbu]I[Sar][Sar][NPrPhe(4-CF3)][Sar][hPhe(3-Cl-4-CF3)]P[Ac5c][NMeGly(cPent)][NMeD]-Morpholide; lactam N-11)	130	B (a compound having 3 or more and less than 10 is denoted as B)	B (a compound having 3 or more and less than 10 is denoted as B)
CCCN1C(=O)[C@@H]2CCN2C(=O)[C@H](C)N(C)C(=O)[C@H]([C@@H](C)CC)NC(=O)[C@H](CC(F)(F)F)N(C)C(=O)C[C@@H](C(=O)N2CCOCC2)N(C)C(=O)[C@H](C2CCCC2)N(C)C(=O)C2(CCCC2)NC(=O)[C@@H]2CCCN2C(=O)[C@H](CCc2ccc(C(F)(F)F)c(Cl)c2)NC(=O)CN(C)C(=O)[C@@H]1Cc1ccc(C(F)(F)F)cc1 [PP0191] ([NMeAbu(4,4,4-F3)]I[NMeA][Aze][NPrPhe(4-CF3)][Sar][hPhe(3-Cl-4-CF3)]P[Ac5c][NMeGly(cPent)][NMeD]-Morpholide; lactam N-11)	140	C (A compound having a KD ratio of 0.1 or more and less than 3 is denoted as C)	B (a compound having 3 or more and less than 10 is denoted as B)
CCCN1C(=O)[C@@H]2CCN2C(=O)[C@H](C)N(C)C(=O)[C@H]([C@@H](C)CC)NC(=O)[C@H](C2CCC2)N(C)C(=O)C[C@@H](C(=O)N2CCOCC2)N(C)C(=O)[C@H](C2CCCC2)N(C)C(=O)C2(CCCC2)NC(=O)[C@@H]2CCCN2C(=O)[C@H](CCc2ccc(C(F)(F)F)c(Cl)c2)NC(=O)CN(C)C(=O)[C@@H]1Cc1ccc(C(F)(F)F)cc1 [PP0192] ([NMeGly(cBu)]I[NMeA][Aze][NPrPhe(4-CF3)][Sar][hPhe(3-Cl-4-CF3)]P[Ac5c][NMeGly(cPent)][NMeD]-Morpholide; lactam N-11)	190	C (A compound having a KD ratio of 0.1 or more and less than 3 is denoted as C)	B (a compound having 3 or more and less than 10 is denoted as B)
CCC[C@H]1C(=O)N[C@@H]([C@@H](C)CC)C(=O)N(C)[C@@H](C)C(=O)N2CC[C@H]2C(=O)N(CCC)[C@@H](Cc2ccc(C(F)(F)F)cc2)C(=O)N(C)CC(=O)N[C@@H](CCc2ccc(C(F)(F)F)c(Cl)c2)C(=O)N2CCC[C@H]2C(=O)NC2(CCCC2)C(=O)N(C)[C@@H](C2CCCC2)C(=O)N(C)[C@H](C(=O)N2CCOCC2)CC(=O)N1C [PP0193] ([NMeNva]I[NMeA][Aze][NPrPhe(4-CF3)][Sar][hPhe(3-Cl-4-CF3)]P[Ac5c][NMeGly(cPent)][NMeD]-Morpholide; lactam N-11)	170	C (A compound having a KD ratio of 0.1 or more and less than 3 is denoted as C)	C (A compound having a KD ratio of 0.1 or more and less than 3 is denoted as C)
CCCN1C(=O)[C@@H]2CCN2C(=O)[C@H](C)N(C)C(=O)[C@H]([C@@H](C)CC)NC(=O)[C@H](CC)N(C)C(=O)C[C@@H](C(=O)N2CCOCC2)N(C)C(=O)[C@H](C2CCCC2)N(C)C(=O)C2(CCCC2)NC(=O)[C@@H]2CCCN2C(=O)[C@H](CCc2ccc(C(F)(F)F)c(Cl)c2)NC(=O)CN(C)C(=O)[C@@H]1Cc1ccc(C(F)(F)F)cc1 [PP0194] ([NMeAbu]I[NMeA][Aze][NPrPhe(4-CF3)][Sar][hPhe(3-Cl-4-CF3)]P[Ac5c][NMeGly(cPent)][NMeD]-Morpholide; lactam N-11)	90	C (A compound having a KD ratio of 0.1 or more and less than 3 is denoted as C)	B (a compound having 3 or more and less than 10 is denoted as B)
CCCN1C(=O)CN(C)C(=O)CN(C)C(=O)[C@H]([C@@H](C)CC)NC(=O)[C@H](CC(C)C)N(C)C(=O)C[C@@H](C(=O)N2CCOCC2)N(C)C(=O)[C@H](C2CCCC2)N(C)C(=O)C2(CCCC2)NC(=O)[C@@H]2CC(F)(F)CN2C(=O)[C@H](CCc2ccc(C(F)(F)F)c(Cl)c2)NC(=O)CN(C)C(=O)[C@@H]1Cc1ccc(C(F)(F)F)cc1 [PP0195] ([NMeL]I[Sar][Sar][NPrPhe(4-CF3)][Sar][hPhe(3-Cl-4-CF3)][Pro(4,4-F2)][Ac5c][NMeGly(cPent)][NMeD]-Morpholide; lactam N-11)	91	B (a compound having 3 or more and less than 10 is denoted as B)	C (A compound having a KD ratio of 0.1 or more and less than 3 is denoted as C)
CCCN1C(=O)[C@@H]2CCN2C(=O)[C@H](C)N(C)C(=O)[C@H]([C@@H](C)CC)NC(=O)[C@H](CC(C)C)N(C)C(=O)C[C@@H](C(=O)N2CCOCC2)N(C)C(=O)[C@H](C2CCCC2)N(C)C(=O)C2(CCCC2)NC(=O)[C@@H]2CC(F)(F)CN2C(=O)[C@H](CCc2ccc(C(F)(F)F)c(Cl)c2)NC(=O)CN(C)C(=O)[C@@H]1Cc1ccc(C(F)(F)F)cc1 [PP0196] ([NMeL]I[NMeA][Aze][NPrPhe(4-CF3)][Sar][hPhe(3-Cl-4-CF3)][Pro(4,4-F2)][Ac5c][NMeGly(cPent)][NMeD]-Morpholide; lactam N-11)	150	C (A compound having a KD ratio of 0.1 or more and less than 3 is denoted as C)	C (A compound having a KD ratio of 0.1 or more and less than 3 is denoted as C)
CCCN1C(=O)CN(C)C(=O)CN(C)C(=O)[C@H]([C@@H](C)CC)NC(=O)[C@H](CC(C)C)N(C)C(=O)C[C@@H](C(=O)N2CCOCC2)N(C)C(=O)[C@H](C2CCCC2)N(C)C(=O)C2(CCC2)NC(=O)[C@@H]2CCCN2C(=O)[C@H](CCc2ccc(C(F)(F)F)c(Cl)c2)NC(=O)CN(C)C(=O)[C@@H]1Cc1ccc(C(F)(F)F)cc1 [PP0197] ([NMeL]I[Sar][Sar][NPrPhe(4-CF3)][Sar][hPhe(3-Cl-4-CF3)]P[Ac4c][NMeGly(cPent)][NMeD]-Morpholide; lactam N-11)	130	B (a compound having 3 or more and less than 10 is denoted as B)	C (A compound having a KD ratio of 0.1 or more and less than 3 is denoted as C)
CCCN1C(=O)[C@@H]2CCN2C(=O)[C@H](C)N(C)C(=O)[C@H]([C@@H](C)CC)NC(=O)[C@H](CC(C)C)N(C)C(=O)C[C@@H](C(=O)N2CCOCC2)N(C)C(=O)[C@H](C2CCCC2)N(C)C(=O)C2(CCC2)NC(=O)[C@@H]2CCCN2C(=O)[C@H](CCc2ccc(C(F)(F)F)c(Cl)c2)NC(=O)CN(C)C(=O)[C@@H]1Cc1ccc(C(F)(F)F)cc1 [PP0198] ([NMeL]I[NMeA][Aze][NPrPhe(4-CF3)][Sar][hPhe(3-Cl-4-CF3)]P[Ac4c][NMeGly(cPent)][NMeD]-Morpholide; lactam N-11)	190	C (A compound having a KD ratio of 0.1 or more and less than 3 is denoted as C)	B (a compound having 3 or more and less than 10 is denoted as B)
CCCN1C(=O)CN(C)C(=O)CN(C)C(=O)[C@H]([C@@H](C)CC)NC(=O)[C@H](CC(F)(F)F)N(C)C(=O)C[C@@H](C(=O)N2CCOCC2)N(C)C(=O)[C@H](C2CCCC2)N(C)C(=O)C2(CCCC2)NC(=O)[C@@H]2CC(F)(F)CN2C(=O)[C@H](CCc2ccc(C(F)(F)F)c(Cl)c2)NC(=O)CN(C)C(=O)[C@@H]1Cc1ccc(C(F)(F)F)cc1 [PP0199] ([NMeAbu(4,4,4-F3)]I[Sar][Sar][NPrPhe(4-CF3)][Sar][hPhe(3-Cl-4-CF3)][Pro(4,4-F2)][Ac5c][NMeGly(cPent)][NMeD]-Morpholide; lactam N-11)	130	B (a compound having 3 or more and less than 10 is denoted as B)	C (A compound having a KD ratio of 0.1 or more and less than 3 is denoted as C)
